According to publication PMC4198181, “Gold(I) Complexes of 9-Deazahypoxanthine as Selective Antitumor and Anti-Inflammatory Agents” (PLoS ONE, 2014):

Key:
[1] = test system: TNF-α secretion in LPS-stimulated macrophage-like THP-1 cells; assay: LPS-induced TNF-α secretion in THP-1 macrophages (ELISA); format: cell-based, human; conditions: 300 nM, 1 h pretreatment, 24 h after LPS
Description: (§1) For the determination of biological activity, we used the human monocytic leukaemia cell line THP-1 (ECACC, Salisbury, UK). The cells were cultivated at 37°C in the RPMI 1640 medium supplemented with 2 mM L-glutamine, 10% FBS, 100 U/mL of penicillin and 100 µg/mL of streptomycin in a humidified atmosphere containing 5% CO2. Stabilized cells (3rd–15th passage) were split into microtitration plates to get a concentration of 500 000 cells/mL and the differentiation to macrophages was induced by phorbol myristate acetate (PMA) dissolved in dimethyl sulfoxide (DMSO) at the final concentration of 50 ng/ml, and the cells were incubated for 24 h. In comparison with monocytes, differentiated macrophages tend to adhere to the bottoms of the cultivation plates. For next 24 h the cells were incubated with a fresh complete RPMI medium, i.e. containing antibiotics and FBS, without PMA. The medium was then aspirated, and the cells were washed with PBS and cultivated for next 24 hours in serum-free RPMI 1640 medium. These prepared macrophages were used for the detection of inflammatory response.
(§2) Differentiated macrophages were pretreated with 300 nM solutions of the tested complexes, HLn, AuCl, [AuCl(PPh3)], PPh3 and Auranofin dissolved in DMSO (the final DMSO concentration was 0.1%) and with 0.1% DMSO solution itself (vehicle) for 1 h; the given concentrations of the tested compounds lack the cytotoxic effect (cell viability >94%) based on the results of WST-1 test. The inflammatory response in pretreated macrophages was triggered by the addition of 1.0 µg/mL lipopolysaccharide (LPS) dissolved in water, while the control cells (CTRL) remained without the LPS treatment.
(§3) Macrophages, which were pretreated with the tested compounds (complexes 1–5, HLn, AuCl, [AuCl(PPh3)], PPh3 and Auranofin) for 1 h, were incubated with LPS for next 24 h. After this period, the medium was collected and the concentration of TNF-α, and IL-1β was determined by the Instant ELISA Kit according to the manufactures' manual.
(§4) The statistically significant differences between individual groups during anti- inflammatory testing were evaluated using a one-way ANOVA test for statistical analysis, followed by Tukey's post-hoc test for multiple comparisons. GraphPad Prism 5.02 (GraphPad Software Inc., San Diego, CA, USA) was used to perform the analysis. The results are presented as arithmetic means±S.E. values.

[2] = test system: IL-1β secretion in LPS-stimulated macrophage-like THP-1 cells; assay: LPS-induced IL-1β secretion in THP-1 macrophages (ELISA); format: cell-based, human; conditions: 300 nM, 1 h pretreatment, 24 h after LPS
Description: as §1, §2, §3, §4

[3] = test system: MCF7 breast carcinoma cells; assay: MTT in vitro cytotoxicity, MCF7; format: cell-based, human; conditions: 24 h treatment, read-out: IC50±S.E., MCF7
Description: (§5) In vitro cytotoxic activity was determined by the MTT assay in human breast adenocarcinoma (MCF7; ECACC no. 86012803), human osteosarcoma (HOS; ECACC no. 87070202), lung carcinoma (A549; ECACC no. 86012804), malignant melanoma (G361; ECACC no. 88030401), cervix epitheloid carcinoma (HeLa; ECACC no. 93021013), ovarian carcinoma (A2780; ECACC no. 93112519), cisplatin-resistant ovarian carcinoma (A2780R; […] ECACC no 105092802) cancer cell lines, purchased from European Collection of Cell Cultures (ECACC). […] The primary culture of human hepatocytes (HEP220, batch number HEP220819) was obtained from Biopredic International (France). The culture medium was Williams and HAM's F-12 (1∶1) supplemented with penicillin, streptomycin, ascorbic acid, linoleic acid, holo-transferin, ethanolamine, glucagon, insulin, dexamethasone, pyruvate, glucose, glutamine, amphotericin. The medium was enriched for plating with 2% foetal calf serum (v/v). The medium was exchanged for a serum-free medium the day after and the culture was stabilized for additional 24 h. Thereafter, the cells were ready for treatments. […] The MTT assay was performed spectrophotometrically at 540 nm (TECAN, Schoeller Instruments LLC). The cytotoxicity data were expressed as the percentage of viability, where 100% represented the treatments with vehicle (0.1% DMF or 0.1% DMSO). The cytotoxicity data from the cancer cell lines were acquired from three independent experiments (conducted in triplicate) using cells from different passages. The IC50 values were calculated from viability curves. The results are presented as arithmetic means±standard error of the mean (S.E.).

HOS osteosarcoma cells = assay: MTT in vitro cytotoxicity, HOS; format: cell-based, human; conditions: 24 h treatment, read-out: IC50±S.E., HOS
Description: as §5

[4] = test system: A549 lung carcinoma cells; assay: MTT in vitro cytotoxicity, A549; format: cell-based, human; conditions: 24 h treatment, read-out: IC50±S.E., A549
Description: as §5

[5] = test system: G361 malignant melanoma cells; assay: MTT in vitro cytotoxicity, G361; format: cell-based, human; conditions: 24 h treatment, read-out: IC50±S.E., G361
Description: as §5

[6] = test system: HeLa cervix epitheloid carcinoma cells; assay: MTT in vitro cytotoxicity, HeLa; format: cell-based, human; conditions: 24 h treatment, read-out: IC50±S.E., HeLa
Description: as §5

[7] = test system: A2780 ovarian carcinoma cells; assay: MTT in vitro cytotoxicity, A2780; format: cell-based, human; conditions: 24 h treatment, read-out: IC50±S.E., A2780
Description: as §5

[8] = test system: A2780R ovarian carcinoma cells resistant to cisplatin; assay: MTT in vitro cytotoxicity, A2780R; format: cell-based, human; conditions: for IC50: 24 h treatment, MTT, read-out: IC50±S.E., A2780R
Description: as §5

[9] = test system: 22Rv1 prostate carcinoma cells; assay: MTT in vitro cytotoxicity, 22Rv1; format: cell-based, human; conditions: 24 h treatment, read-out: IC50±S.E., 22Rv1
Description: as §5

[10] = test system: THP-1 monocytic leukaemia cells; assay: WST-1 in vitro cytotoxicity, THP-1; format: cell-based, human; conditions: 24 h treatment, WST-1, 0.16–10.00 µM; read-out: IC50±S.E., THP-1
Description: Before the in vitro anti-inflammatory testing, in vitro cytotoxicity on human monocytic leukaemia cells (THP-1, ECACC no. 88081201) was determined using the WST-1 assay. The THP-1 cells (floating monocytes, 500 000 cells/mL) were incubated in 100 µL of the serum-free RPMI 1640 medium and seeded into 96-well plates in triplicate at 37°C. Measurements were taken 24 h after the treatment with the tested compounds dissolved in 0.1% DMSO in the concentration range of 0.16–10.00 µM. Viability was determined by the WST-1 test according to the manufacturer's manual. The amount of the formed formazan (which correlates to the number of metabolically active cells in the culture) was calculated as a percentage of the control cells, which were treated only with 0.1% DMSO and was set-up as 100%. The IC50 values of the tested compounds were calculated from the obtained data. The WST-1 assay was performed spectrophotometrically at 440 nm (FLUOstar Omega, BMG Labtech).
The cytotoxicity data were expressed as the percentage of viability, where 100% represented the treatments with vehicle (0.1% DMF or 0.1% DMSO). The cytotoxicity data from the cancer cell lines were acquired from three independent experiments (conducted in triplicate) using cells from different passages. The IC50 values were calculated from viability curves. The results are presented as arithmetic means±standard error of the mean (S.E.). The significance of the differences between the results was assessed by the ANOVA analysis with p<0.05 considered to be significant (QC Expert 3.2, Statistical software, TriloByte Ltd., Pardubice, Czech Republic).

[11] = test system: primary culture of human hepatocytes (HEP220); assay: MTT in vitro cytotoxicity, primary human hepatocytes; format: cell-based; conditions: 24 h treatment, MTT; read-out: IC50±S.E., HEP220 (healthy human hepatocytes)
Description: as §5

[12] = test system: λ-carrageenan-induced hind paw edema; assay: Carrageenan-induced hind paw edema; format: in vivo, Wistar-SPF rats; conditions: i.p., dose equivalent in gold to 10 mg/kg Auranofin
Description: Wistar-SPF (6–8 weeks male) rats were obtained from AnLab, Ltd. (Prague, Czech Republic). The animals were kept in plexiglass cages at the constant temperature of 22±1°C and relative humidity of 55±5% for at least 1 week before the experiment. They were given food and water ad libitum. All the experimental procedures were performed according to the National Institutes of Health (NIH) Guide for the Care and Use of Laboratory Animals. In addition, all the tests were conducted under the guidelines of the International Association for the Study of Pain [61]. After a one-week adaptation period, male Wistar-SPF rats (200–250 g) were randomly assigned to five groups (n = 7) of the animals in the study. The first, control group, received 25% DMSO (v/v in water, intraperitoneal; i.p.). The next three groups were pretreated with complexes 2, 4 and 5, and involved into the carrageenan-treatment. The fifth group was treated with a non-steroidal anti-inflammatory drug Indomethacin (5 mg/kg), which served as a positive control group (Indomethacin + carrageenan).
The carrageenan-induced hind paw edema model was used for the determination of anti-inflammatory activity. Animals were i.p. pretreated with complexes 2, 4, and 5 (the dosages of the individual complexes were adjusted to contain the same amount of gold as in 10 mg/kg dose of Auranofin), Indomethacin (5 mg/kg), or 25% DMSO (v/v in water) 30 min prior to the injection of 1% λ-carrageenan solution (50 µL) into the plantar side of right hind paws of the rats. The paw volume was measured immediately after the carrageenan injection (this value was set-up as baseline value for the hind paw volume) and during the next 6 h after the administration of the edematogenic agent using a plethysmometer (model 7159, Ugo Basile, Varese, Italy). The degree of swelling was evaluated as a percentage of the change of the volume of the right hind paw after the carrageenan treatment from the baseline volume. A non-steroidal anti-inflammatory drug Indomethacin was used as a positive control and the obtained data were also compared with the previously reported profile of antiedematous activity for Auranofin [38]. After 6 h, the animals were sacrificed and the edematous feet were dissected, the tissue from the plantar parts was extracted, fixed and stained by a standard hematoxylin/eosin (HE) staining for cytological evaluation of polymorphonuclear cells infiltration.
as §4

SMILES: c1ccc(COc2ncnc3cc[nH]c23)cc1 [HL4, 6-benzyloxy-9-deazapurine]
- effect on LPS-induced TNF-α secretion [1]: stimulate the production

SMILES: c1ccc(P(c2ccccc2)c2ccccc2)cc1 [PPh3, triphenylphosphine]
- effect on LPS-induced TNF-α secretion [1]: none of the reference compounds, such as AuCl, HLn, [AuCl(PPh3)] and PPh3, exhibited any expected effect
- effect on LPS-induced IL-1β secretion [2]: decreased the production of IL-1β by a manner comparable to free ligands
- level of IL-1β diminished by [2]: ~32%

SMILES: [Au][n]1ccc2ncnc(OCC3CCCO3)c21.c1ccc(P(c2ccccc2)c2ccccc2)cc1 [complex 3]
- IC50 [3]: 2.2 ± 0.2 µM
- IC50 (HOS osteosarcoma cells): 4 ± 0.6 µM
- IC50 [4]: 21.4 ± 0.2 µM
- IC50 [5]: 3.4 ± 0.2 µM
- IC50 [6]: 20.7 ± 0.2 µM
- IC50 [7]: 4.6 ± 0.3 µM
- IC50 [8]: 5.3 ± 0.4 µM
- IC50 [9]: 21 ± 0.7 µM
- IC50 [10]: 1 ± 0.1 µM
- IC50 [11]: 24.1 ± 2.4 µM

SMILES: CC(C)Oc1ncnc2cc[nH]c12 [HL2, 6-isopropyloxy-9-deazapurine]
- effect on LPS-induced TNF-α secretion [1]: stimulate the production

SMILES: c1ccc(CCOc2ncnc3cc[nH]c23)cc1 [HL5, 6-phenethyloxy-9-deazapurine]
- effect on LPS-induced TNF-α secretion [1]: stimulate the production

SMILES: CCOc1ncnc2cc[n]([Au])c12.c1ccc(P(c2ccccc2)c2ccccc2)cc1 [complex 1]
- IC50 [3]: 3.1 ± 0.2 µM
- IC50 (HOS osteosarcoma cells): 3.3 ± 0.1 µM
- IC50 [4]: 20.7 ± 0.1 µM
- IC50 [5]: 3.5 ± 0.2 µM
- IC50 [6]: 22 ± 0.6 µM
- IC50 [7]: 4.8 ± 0.1 µM
- IC50 [8]: 5.2 ± 0.3 µM
- IC50 [9]: 3.5 ± 0.1 µM
- IC50 [10]: 0.8 ± 0.1 µM
- IC50 [11]: 24 ± 1.9 µM
- level of IL-1β diminished by [2]: 32%

SMILES: [Cl][Au].c1ccc(P(c2ccccc2)c2ccccc2)cc1 [[AuCl(PPh3)], reference compound]
- effect on LPS-induced TNF-α secretion [1]: none of the reference compounds, such as AuCl, HLn, [AuCl(PPh3)] and PPh3, exhibited any expected effect

SMILES: [Au][n]1ccc2ncnc(OCc3ccccc3)c21.c1ccc(P(c2ccccc2)c2ccccc2)cc1 [complex 4]
- IC50 [3]: 4 ± 0.9 µM
- IC50 (HOS osteosarcoma cells): 1.8 ± 0.3 µM
- IC50 [4]: > 20 µM
- IC50 [5]: 3.5 ± 0.2 µM
- IC50 [6]: 14.3 ± 0.2 µM
- IC50 [7]: 4.6 ± 0.2 µM
- IC50 [8]: 5.1 ± 0.3 µM
- IC50 [9]: 3.5 ± 0.2 µM
- IC50 [10]: 1.7 ± 0.1 µM
- IC50 [11]: 23.7 ± 2.1 µM
- overall antiedematous / anti-inflammatory activity [12]: significant anti-inflammatory effects
- antiedematous activity profile up to 180 min after carrageenan ([12]; 30 min before carrageenan): very similar pharmacological profiles of complexes 2 and 4 with the reference drug Indomethacin

SMILES: N.N.[Cl][Pt][Cl] [cisplatin, reference compound]
- IC50 [3]: 17.9 ± 1.2 µM
- IC50 (HOS osteosarcoma cells): 20.5 ± 0.1 µM
- IC50 [4]: > 50 µM
- IC50 [5]: 5.3 ± 0.2 µM
- IC50 [6]: > 50 µM
- IC50 [7]: 11.5 ± 0.5 µM
- IC50 [8]: 27 ± 1.5 µM
- resistance factor (RF), IC50(A2780R)/IC50(A2780) ([8]; ratio resistant/sensitive cells): 2.4
- IC50 [9]: 26.9 ± 1.2 µM
- IC50 [11]: > 50 µM
